{"source": "paper PMC3262960", "about": "(ACS Chemical Biology, 2011)", "key": {"[1]": {"conditions": "animal models of RA, UC, and neuron degeneration; cited from earlier work"}, "PAD1 [2]": {"biological_target": "T1, PAD1 (Homo sapiens, UniProt Q9ULC6)", "T1 sequence (Q9ULC6 1-663)": "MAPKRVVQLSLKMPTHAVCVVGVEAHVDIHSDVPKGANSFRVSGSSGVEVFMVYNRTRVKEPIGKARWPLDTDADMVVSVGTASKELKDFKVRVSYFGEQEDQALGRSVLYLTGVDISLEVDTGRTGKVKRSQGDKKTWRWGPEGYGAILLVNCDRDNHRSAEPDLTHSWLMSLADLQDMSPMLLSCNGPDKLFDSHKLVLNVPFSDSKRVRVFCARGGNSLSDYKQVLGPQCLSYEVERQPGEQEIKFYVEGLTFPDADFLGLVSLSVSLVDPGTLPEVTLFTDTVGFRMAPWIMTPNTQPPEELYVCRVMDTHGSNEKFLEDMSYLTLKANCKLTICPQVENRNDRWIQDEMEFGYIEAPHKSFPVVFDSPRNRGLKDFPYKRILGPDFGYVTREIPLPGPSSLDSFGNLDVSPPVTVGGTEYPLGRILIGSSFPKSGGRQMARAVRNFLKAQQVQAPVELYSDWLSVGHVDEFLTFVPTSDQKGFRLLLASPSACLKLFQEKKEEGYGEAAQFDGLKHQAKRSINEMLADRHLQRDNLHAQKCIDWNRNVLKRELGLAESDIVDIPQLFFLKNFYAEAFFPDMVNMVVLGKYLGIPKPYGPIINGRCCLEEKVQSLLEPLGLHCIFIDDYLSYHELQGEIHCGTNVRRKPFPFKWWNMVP", "conditions": "read-out: IC50 PAD1; first generation inhibitors; cited from earlier work"}, "PAD3 [3]": {"biological_target": "T2, PAD3 (Homo sapiens, UniProt Q9ULW8)", "T2 sequence (Q9ULW8 1-664)": "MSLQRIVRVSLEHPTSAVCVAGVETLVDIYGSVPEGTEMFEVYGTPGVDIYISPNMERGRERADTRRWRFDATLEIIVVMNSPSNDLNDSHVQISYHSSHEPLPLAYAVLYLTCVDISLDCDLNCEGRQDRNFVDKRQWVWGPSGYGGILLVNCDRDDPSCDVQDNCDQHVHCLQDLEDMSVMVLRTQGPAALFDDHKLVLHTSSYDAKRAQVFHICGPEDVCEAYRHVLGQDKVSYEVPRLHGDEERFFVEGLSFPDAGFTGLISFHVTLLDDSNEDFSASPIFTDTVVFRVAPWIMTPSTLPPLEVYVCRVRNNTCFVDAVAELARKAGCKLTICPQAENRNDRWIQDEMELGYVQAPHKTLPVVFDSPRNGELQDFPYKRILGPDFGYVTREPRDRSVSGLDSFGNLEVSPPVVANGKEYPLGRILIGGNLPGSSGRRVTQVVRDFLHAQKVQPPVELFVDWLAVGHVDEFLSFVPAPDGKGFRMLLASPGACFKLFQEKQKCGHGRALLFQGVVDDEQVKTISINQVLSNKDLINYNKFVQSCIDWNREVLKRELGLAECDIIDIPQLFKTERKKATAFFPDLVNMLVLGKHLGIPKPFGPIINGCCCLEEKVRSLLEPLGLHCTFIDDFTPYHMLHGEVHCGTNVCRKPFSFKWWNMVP", "conditions": "read-out: IC50 PAD3; first generation inhibitors; cited from earlier work"}, "PAD4 Q346A mutant": {"system": "PAD4 Q346A mutant", "assay": "IC50 with PAD4 Q346A mutant", "conditions": "relative to wild type PAD4"}, "PAD1 [4]": {"biological_target": "T1, PAD1", "assay": "PAD1 inhibition, IC50 determination", "type": "biochemical", "conditions": "read-out: IC50 PAD1"}, "PAD4 R374Q mutant": {"system": "PAD4 R374Q mutant", "assay": "IC50 with PAD4 R374Q mutant", "conditions": "relative to wild type PAD4"}, "PAD3 [5]": {"biological_target": "T2, PAD3", "assay": "PAD3 inhibition, IC50 determination", "type": "biochemical", "conditions": "read-out: IC50 PAD3"}, "PAD4 R639Q mutant": {"system": "PAD4 R639Q mutant", "assay": "IC50 with PAD4 R639Q mutant", "conditions": "relative to wild type PAD4"}, "PAD4 [6]": {"biological_target": "T3, PAD4 (Homo sapiens, UniProt Q9UM07)", "T3 sequence (Q9UM07 whole entry)": "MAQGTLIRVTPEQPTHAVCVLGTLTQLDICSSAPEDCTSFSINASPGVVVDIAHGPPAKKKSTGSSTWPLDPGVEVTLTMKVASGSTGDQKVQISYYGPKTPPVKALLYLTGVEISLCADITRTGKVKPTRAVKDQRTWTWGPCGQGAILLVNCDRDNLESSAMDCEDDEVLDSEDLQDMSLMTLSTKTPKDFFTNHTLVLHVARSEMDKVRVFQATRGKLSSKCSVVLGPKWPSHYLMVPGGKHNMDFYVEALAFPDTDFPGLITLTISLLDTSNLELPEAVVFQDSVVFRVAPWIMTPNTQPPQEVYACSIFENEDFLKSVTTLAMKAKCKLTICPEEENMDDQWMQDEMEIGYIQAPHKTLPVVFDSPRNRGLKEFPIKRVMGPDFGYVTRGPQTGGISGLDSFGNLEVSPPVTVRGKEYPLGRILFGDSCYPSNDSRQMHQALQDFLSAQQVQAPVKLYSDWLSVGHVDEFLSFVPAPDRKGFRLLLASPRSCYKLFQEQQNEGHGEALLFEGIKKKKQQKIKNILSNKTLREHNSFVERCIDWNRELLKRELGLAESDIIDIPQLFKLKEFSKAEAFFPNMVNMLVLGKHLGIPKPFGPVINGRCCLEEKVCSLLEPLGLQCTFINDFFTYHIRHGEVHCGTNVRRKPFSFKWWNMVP", "assay": "Substrate protection experiments", "type": "biochemical", "conditions": "two different concentrations of substrate"}, "PAD4 [7]": {"biological_target": "T3, PAD4", "assay": "PAD4 inhibition, IC50 determination"}, "PAD4 [8]": {"biological_target": "T3, PAD4", "assay": "Dialysis of PAD4•inactivator complex", "type": "biochemical", "conditions": "excess inhibitor, 20 h of dialysis"}, "PAD2 [9]": {"biological_target": "T4, PAD2 (Homo sapiens, UniProt Q9Y2J8)", "T4 sequence (Q9Y2J8 whole entry)": "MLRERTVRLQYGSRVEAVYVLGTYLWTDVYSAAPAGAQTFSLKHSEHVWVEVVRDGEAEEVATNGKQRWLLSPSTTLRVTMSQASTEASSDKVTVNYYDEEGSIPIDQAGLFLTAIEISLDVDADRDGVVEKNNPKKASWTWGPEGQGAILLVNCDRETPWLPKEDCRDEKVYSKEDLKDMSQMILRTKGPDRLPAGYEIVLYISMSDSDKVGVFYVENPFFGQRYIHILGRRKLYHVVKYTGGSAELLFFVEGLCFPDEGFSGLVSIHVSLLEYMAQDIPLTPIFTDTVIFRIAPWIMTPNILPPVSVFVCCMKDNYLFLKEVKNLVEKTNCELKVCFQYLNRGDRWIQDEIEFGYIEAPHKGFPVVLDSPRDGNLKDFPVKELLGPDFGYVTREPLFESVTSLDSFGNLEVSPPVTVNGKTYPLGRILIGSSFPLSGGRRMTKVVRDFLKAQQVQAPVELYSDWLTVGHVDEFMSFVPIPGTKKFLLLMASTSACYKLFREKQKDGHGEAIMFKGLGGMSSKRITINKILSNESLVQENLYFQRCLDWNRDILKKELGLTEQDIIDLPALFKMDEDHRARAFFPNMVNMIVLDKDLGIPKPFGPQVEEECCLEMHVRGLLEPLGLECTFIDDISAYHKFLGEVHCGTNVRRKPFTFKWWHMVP", "assay": "PAD2 inhibition, IC50 determination", "type": "biochemical", "conditions": "read-out: IC50 PAD2"}, "PAD1 [10]": {"biological_target": "T1, PAD1", "assay": "Substrate activity with PAD1"}, "PAD4 [11]": {"biological_target": "T3, PAD4", "assay": "Substrate activity with PAD4"}, "PAD3 [12]": {"biological_target": "T2, PAD3", "assay": "Substrate activity with PAD3"}, "PAD2 [13]": {"biological_target": "T4, PAD2", "assay": "Substrate activity with PAD2"}}, "note": "Where two headings read alike, the source gives them in different places.", "data": [{"molecule": "N=C(CCl)NCCC[C@H](NC(=O)c1ccccc1)C(N)=O", "note": "[Cl-amidine, N-alpha-benzoyl-N5-(2-chloro-1-iminoethyl)-L-ornithine amide]", "values": [{"measurement": "effect on disease severity in animal models", "setting": "[1]", "value": "reduces disease severity"}]}, {"molecule": "NC(=O)[C@H](CCCN=C(N)CF)NC(=O)c1ccccc1", "note": "[F-amidine]", "values": [{"measurement": "IC50", "setting": "PAD1 [2]", "value": "30 ± 1.3", "unit": "µM"}, {"measurement": "IC50", "setting": "PAD3 [3]", "value": "≥ 350", "unit": "µM"}]}, {"molecule": "CC(=O)N[C@H](C(=O)N[C@@H](CC(=O)O)C(=O)N[C@@H](CCCN=C(N)CF)C(N)=O)[C@@H](C)O", "note": "[TDFA, Thr-Asp-F-amidine]", "values": [{"measurement": "increase of IC50 with Q346A mutant", "setting": "PAD4 Q346A mutant", "value": 1.9, "unit": "fold"}, {"measurement": "IC50", "setting": "PAD1 [4]", "value": "8.5 ± 0.8", "unit": "µM"}, {"measurement": "increase of IC50 with R374Q mutant", "setting": "PAD4 R374Q mutant", "value": 5.2, "unit": "fold"}, {"measurement": "IC50", "setting": "PAD3 [5]", "value": "26 ± 7.4", "unit": "µM"}, {"measurement": "increase of IC50 with R639Q mutant", "setting": "PAD4 R639Q mutant", "value": 2.9, "unit": "fold"}, {"measurement": "rates of inactivation at the higher concentration of substrate", "setting": "PAD4 [6]", "value": "considerably lower"}, {"measurement": "selectivity for PAD4 relative to the other PADs, based on IC50 values", "setting": "PAD4 [7]", "value": "≥ 4", "unit": "fold"}, {"measurement": "enhancement in potency relative to F-amidine (IC50)", "setting": "PAD4 [7]; PAD4", "value": "~ 10 fold"}, {"measurement": "IC50", "setting": "PAD4 [7]; read-out: IC50 PAD4", "value": "2.3 ± 0.2", "unit": "µM"}, {"measurement": "recovery of PAD4 activity after dialysis", "setting": "PAD4 [8]", "value": "no recovery of activity"}, {"measurement": "IC50", "setting": "PAD2 [9]", "value": "71 ± 4.4", "unit": "µM"}]}, {"molecule": "Ac-Threonine-Aspartate-Arginine-NH2 [Ac-TDR-NH2]", "values": [{"measurement": "substrate quality for PAD1", "setting": "PAD1 [10]", "value": "excellent substrate"}, {"measurement": "substrate quality for PAD4", "setting": "PAD4 [11]", "value": "excellent substrate"}, {"measurement": "substrate quality for PAD3", "setting": "PAD3 [12]", "value": "relatively poor"}, {"measurement": "substrate quality for PAD2", "setting": "PAD2 [13]", "value": "relatively poor"}]}]}
